According to PubChem BioAssay (NCI):
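In this assay, cells in 96-well plates receive the compound at five concentrations for 48 hours. Endpoints are linearly interpolated between the surrounding concentrations. TGI: total growth inhibition.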

Columns and labels:
Assay in all cases: growth of human tumour cells (NCI), 48 h
[1] = system: TK-10 renal
[2] = system: HT29 colon
[3] = system: MOLT-4 leukemia
[4] = system: SW-620 colon
[5] = system: UACC-257 melanoma
[6] = system: A549 NSCLC
[7] = system: DMS 273 small cell lung
[8] = system: SF-539 CNS
[9] = system: CAKI-1 renal
[10] = system: RXF-631 renal
[11] = system: LXFL 529 NSCLC
[12] = system: ACHN renal
[13] = system: RPMI-8226 leukemia
[14] = system: SK-MEL-28 melanoma
[15] = system: IGROV1 ovarian
[16] = system: SK-OV-3 ovarian
[17] = system: SR leukemia
[18] = system: NCI-H522 lung
[19] = system: HOP-92 NSCLC
[20] = system: SNB-75 CNS
[21] = system: SK-MEL-5 melanoma
[22] = system: SF-268 CNS
[23] = system: EKVX NSCLC
[24] = system: OVCAR-3 ovarian
[25] = system: 786-0 renal
[26] = system: SF-295 CNS
[27] = system: KM12 colon
[28] = system: HCT-116 colon
[29] = system: NCI-H226 lung
[30] = system: K-562 leukemia
[31] = system: HL-60(TB) leukemia
[32] = system: CCRF-CEM leukemia
[33] = system: M14 melanoma
[34] = system: KM20L2 colon
[35] = system: M19-MEL melanoma
[36] = system: UACC-62 melanoma
[37] = system: LOX IMVI melanoma

Measured: TGI

N#CCc1ccccc1/C(C#N)=C1/OC(=N)C(c2ccccc2CC#N)C1=O (configuration not stated)
> 100 µM: [1] | [2] | [3] | [4] | [5] | [6] | [7] | [8] | [9] | [10] | [11] | [12] | [13] | [14] | [15] | [16] | [17] | [18] | [19] | [20] | [21] | [22] | [23] | [24] | [25] | [26] | [27] | [28] | [29] | [30] | [31] | [32] | [33] | [34] | [35] | [36] | [37]
